How the values were obtained:
[1] = test system: high-fat diet mice; experiment: Intraperitoneal insulin tolerance test (IP-ITT) in high-fat diet mice; assay type: in vivo, C57BL/6J mice; conditions: 5 mg/kg/day oral, 60% HFD, insulin 0.75 U/kg i.p. after 3 h fasting, FIG. 11
Description: (§1) The care and use of experimental animals were carried out with the approval of the Institutional Animal Care and Use Committee of Pohang University of Science and Technology. C57BL/6J mice were purchased from Japan SLC, Inc. 50 four-week-old male C57/BL/6J mice were acclimated for 2 weeks. The mice were randomly divided and orally administered with vehicle or 5 mg/kg/day of D6 or WY14643 for 13 weeks (oral gavage), and obesity was induced by a 60% high-fat diet (#D12492, Research diets, NJ, USA). Body weights and food intakes were measured weekly from 6 weeks of age, and after 16 weeks of age, adipose tissue and muscle volumes were measured using a Trimodality imaging system.
An insulin tolerance test (ITT) was performed on mice after 17 weeks of age after fasting for 3 hours and intraperitoneal insulin administration at 0.75 U/kg body weight. The blood glucose levels were measured at 0, 15, 30, 45, 60 and 90 minutes after tail vein injection.
To confirm a metabolic disease inhibitory effect of the compound represented by Chemical Formula 1 through animal experiments, mice were acclimated for 2 weeks, and then obesity was induced by feeding a 60% high fat diet (HFD) and orally administered with vehicle or 5 mg/kg/day of the compound represented by Chemical Formula 1 (D6) or WY14643 for 13 weeks. […]

[2] = biological target: T1, His-tagged recombinant human PPARα ligand binding domain (Homo sapiens, UniProt Q07869); experiment: CNBr-bead conjugation (pull-down) assay, hPPARα-LBD; conditions: CNBr-coupled drug, positive control WY14643, FIG. 2
T1 construct: made in house; host or cells: E. coli (DE3, Rosetta)
T1 sequence (Q07869 239-466 limits assumed): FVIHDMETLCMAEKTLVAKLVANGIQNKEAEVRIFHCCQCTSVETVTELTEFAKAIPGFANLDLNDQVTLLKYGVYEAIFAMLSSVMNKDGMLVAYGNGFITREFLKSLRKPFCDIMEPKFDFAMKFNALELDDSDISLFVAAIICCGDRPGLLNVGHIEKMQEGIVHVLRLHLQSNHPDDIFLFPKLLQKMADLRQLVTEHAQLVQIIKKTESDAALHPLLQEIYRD
Description: A compound of the present invention represented by Chemical Formula 1 was synthesized by DAEJUNG Chemicals & Metals (Gyeonggi-do, Korea) (indicated as ‘D6’ in the drawing). WY14643, GW501516, and rosiglitazone were purchased from Sigma-Aldrich (St. Louis, MO, USA). The compounds were dissolved in dimethyl sulfoxide (DMSO), diluted in a culture solution, and used in the experiment. Cyanogen bromide (CNBr)-activated Sepharose 4B was purchased from Sigma-Aldrich (St. Louis, MO, USA). His-tagged recombinant human PPAR-ligand binding domain (LBD) was expressed in E. coli (DE3, Rosetta) and then purified and used. A His antibody was purchased from Cell Signaling Technology (Danvers, Massachusetts, USA). 3-Isobutyl-1-methylxanthine (IBMX), dexamethasone, bovine pancreatic insulin, and Oil Red O were purchased from Sigma-Aldrich (St. Louis, MO, USA). A PRO-PREP™ Protein Extraction Solution was purchased from iNtRON Biotechnology (iNtRON Biotech., Korea). […]
100 mg of CNBr-activated Sepharose 4B was added to an e-tube, and then the beads were activated by rotating with 1 ml of 1 mM HCl for 10 minutes at room temperature. […] Each e-tube was added with the drug and rotated overnight at 4° C., at which time the concentration was measured to be 20 μM. […] The supernatant was completely removed, and the pellet was detected by Western blotting. […]

[3] = test system: high-fat diet mice; experiment: Serum analysis of high-fat diet mice; assay type: in vivo, C57BL/6J mice; conditions: 5 mg/kg/day oral, 60% HFD
Description: as §1
Mouse blood was obtained by cardiac puncture and incubated at room temperature for 30 minutes. Next, the blood sample was centrifuged at 3,000 rpm for 30 minutes at 4° C., and then the supernatant was collected and analyzed.
To confirm a metabolic disease inhibitory effect of the compound represented by Chemical Formula 1 through animal experiments, mice were acclimated for 2 weeks, and then obesity was induced by feeding a 60% high fat diet (HFD) and orally administered with vehicle or 5 mg/kg/day of the compound represented by Chemical Formula 1 (D6) or WY14643 for 13 weeks. Experiments such as IP-GTT, IP-ITT, and micro-CT were performed at the week 10 of drug administration (FIG. 5).

For COc1ccc(-c2cc(=O)oc3c(C)c(OC(=O)[C@H](Cc4c[nH]c5ccccc45)NC(=O)OC(C)(C)C)ccc23)cc1 [Chemical Formula 1, [4-(4-methoxyphenyl)-8-methyl-2-oxochromen-7-yl] (2S)-3-(1H-indol-3-yl)-2-[(2-methylpropan-2-yl)oxycarbonylamino]propanoate], the “insulin resistance (IP-ITT)” value [1] was “improved”, the “conjugation (binding) to hPPARα-LBD, Western blotting” value [2] was “as much potently as a PPAR agonist used as a positive control” and the “blood sugar (serum glucose)” value ([3]; FIG. 12) was “significantly reduced”. The “blood lipids (LDLC)” value ([3]; FIG. 13) was “significantly reduced”.
